In patent US10294202B2, “Pyrrolidinones as herbicides” (FMC Corporation, priority 2013, dated 2019):

What was measured:
kochia = experiment: Test C pre-/postemergence herbicide test; type: in vivo, Kochia scoparia; conditions: Postemergence
Description: Seeds of plant species selected from blackgrass (Alopecurus myosuroides), ryegrass, Italian (Italian ryegrass, Lolium multiflorum), wheat (winter wheat, Triticum aestivum), galium (catchweed bedstraw, Galium aparine), corn (Zea mays), crabgrass, large (large crabgrass, Digitaria sanguinalis), foxtail, giant (giant foxtail, Setaria faberii), johnsongrass (Sorghum halepense), lambsquarters (Chenopodium album), morningglory (Ipomoea coccinea), nutsedge, yellow (yellow nutsedge, Cyperus esculentus), pigweed (Amaranthus retroflexus), ragweed (common ragweed, Ambrosia elatior), soybean (Glycine max), barnyardgrass (Echinochloa crus-galli), oilseed rape (Brassica napus), waterhemp (common waterhemp, Amaranthus rudis), kochia (Kochia scoparia), oat, wild (wild oat, Avena fatua), surinam grass (Brachiaria decumbens), foxtail, green (green foxtail, Setaria viridis), goosegrass (Eleusine indica), bromegrass, downy (downy bromegrass, Bromus tectorum), nightshade (eastern black nightshade, Solanum ptycanthum), cocklebur (common cocklebur, Xanthium strumarium), cupgrass, woolly (woolly cupgrass, Eriochloa villosa), bermudagrass (Cynodon dactylon), sunflower, (common oilseed sunflower, Helianthus annuus), Russian thistle (Salsola kali) and velvetleaf (Abutilon theophrasti) were planted into a blend of loam soil and sand and treated preemergence with test chemicals formulated in a non-phytotoxic solvent mixture which included a surfactant. At the same time, plants selected from these crop and weed species and also barley (winter barley, Hordeum vulgare), […]), chickweed (common chickweed, Stellaria media), deadnettle (henbit deadnettle, Lamium amplexicaule), and canarygrass (littleseed canarygrass, Phalaris minor) were planted in pots containing Redi-Earth® planting medium (Scotts Company, 14111 Scottslawn Road, Marysville, Ohio 43041) comprising spaghnum peat moss, vermiculite, wetting agent and starter nutrients and treated with postemergence applications of test chemicals formulated in the same manner. Plants ranged in height from 2 to 18 cm (1- to 4-leaf stage) for postemergence treatments. Treated plants and controls were maintained in a greenhouse for 13 to 15 days, after which time all species were compared to controls and visually evaluated. Plant response ratings, summarized in Table C, are based on a scale of 0 to 100 where 0 is no effect and 100 is complete control. A dash (-) response means no test result.

barnyardgrass = experiment: Test C pre-/postemergence herbicide test; type: in vivo, Echinochloa crus-galli; conditions: for Barnyardgrass plant response rating: scale 0 to 100, 0 is no effect and 100 is complete control
How it was run: (§1)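 Pre- and postemergence greenhouse screen. Preemergence treatment went onto freshly planted seeds in loam–sand soil; postemergence treatment went onto plants 2 to 18 cm tall at the 1- to 4-leaf stage in sphagnum peat/vermiculite medium. Scoring at 13 to 15 days used a 0–100 control scale.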

foxtail, giant = experiment: Test C pre-/postemergence herbicide test; type: in vivo, Setaria faberii; conditions: for Foxtail, Giant plant response rating: scale 0 to 100, 0 is no effect and 100 is complete control
How it was run: as §1

velvetleaf = experiment: Test C pre-/postemergence herbicide test; type: in vivo, Abutilon theophrasti; conditions: for Velvetleaf plant response rating: scale 0 to 100, 0 is no effect and 100 is complete control
How it was run: as §1

blackgrass [1] = experiment: Test A postemergence herbicide test; type: in vivo, Alopecurus myosuroides
How it was run: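 Potted in loam soil/sand blend; postemergence application at 1–2 leaf stage (2–10 cm). Greenhouse ~10 d. Visual injury vs untreated, 0–100 scale; 100 = complete control.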

galium = experiment: Test C pre-/postemergence herbicide test; type: in vivo, Galium aparine; conditions: for Galium plant response rating: scale 0 to 100, 0 is no effect and 100 is complete control
How it was run: as §1

blackgrass [2] = experiment: Test C pre-/postemergence herbicide test; type: in vivo, Alopecurus myosuroides; conditions: for Blackgrass plant response rating: scale 0 to 100, 0 is no effect and 100 is complete control
How it was run: as §1

[3] = 31 g ai/ha, scale 0 (no effect) to 100 (complete control)
[4] = 62 g ai/ha, scale 0 to 100 (0 no effect, 100 complete control)
[5] = 125 g ai/ha, scale 0 to 100 (0 no effect, 100 complete control)
[6] = Postemergence, 31 g ai/ha, scale 0 (no effect) to 100 (complete control)
[7] = Postemergence, 62 g ai/ha, scale 0 to 100 (0 no effect, 100 complete control)
[8] = Postemergence, 125 g ai/ha, scale 0 to 100 (0 no effect, 100 complete control)
[9] = Postemergence, 250 g ai/ha, scale 0 to 100 (0 no effect, 100 complete control)
[10] = Preemergence, 62 g ai/ha, scale 0 to 100
[11] = Preemergence, 125 g ai/ha, scale 0 to 100 (0 no effect, 100 complete control)

SMILES: Cc1ccccc1NC(=O)C1C(=O)NCC1c1cccc(C(F)(F)F)c1 (racemic) [Compound 109]
- Plant response rating, Kochia (kochia; [3]): 0
- Plant response rating, Kochia (kochia; [4]): 0
- Plant response rating, Kochia (kochia; [5]): 0
- Plant response rating, Kochia (kochia; 250 g ai/ha, scale 0 to 100 (0 no effect, 100 complete control)): 0
- Plant response rating, Barnyardgrass (barnyardgrass; [6]): 0
- Plant response rating, Barnyardgrass (barnyardgrass; [7]): 0
- Plant response rating, Barnyardgrass (barnyardgrass; [8]): 0
- Plant response rating, Barnyardgrass (barnyardgrass; [9]): 45
- Barnyardgrass plant response rating (barnyardgrass; Preemergence, 31 g ai/ha): 70
- Plant response rating, Barnyardgrass (barnyardgrass; [10]): 85
- Plant response rating, Barnyardgrass (barnyardgrass; [11]): 95
- Plant response rating (scale of 0 to 100; 0 is no effect, 100 is complete control), Barnyardgrass (barnyardgrass; Preemergence, 250 g ai/ha): 98
- Plant response rating, Foxtail, Giant (foxtail, giant; [6]): 60
- Plant response rating, Foxtail, Giant (foxtail, giant; [7]): 15
- Plant response rating, Foxtail, Giant (foxtail, giant; [8]): 50
- Plant response rating, Foxtail, Giant (foxtail, giant; [9]): 70
- Foxtail, Giant plant response rating (foxtail, giant; Preemergence, 31 g ai/ha): 90
- Plant response rating, Foxtail, Giant (foxtail, giant; [10]): 95
- Plant response rating, Foxtail, Giant (foxtail, giant; [11]): 98
- Plant response rating (scale of 0 to 100), Foxtail, Giant (foxtail, giant; Preemergence, 250 g ai/ha): 100
- Plant response rating, Velvetleaf (velvetleaf; [6]): 0
- Plant response rating, Velvetleaf (velvetleaf; [7]): 0
- Plant response rating, Velvetleaf (velvetleaf; [8]): 0
- Plant response rating, Velvetleaf (velvetleaf; [9]): 5
- Velvetleaf plant response rating (velvetleaf; Preemergence, 31 g ai/ha): 0
- Plant response rating, Velvetleaf (velvetleaf; [10]): 0
- Plant response rating, Velvetleaf (velvetleaf; [11]): 0
- Plant response rating (scale of 0 to 100), Velvetleaf (velvetleaf; Preemergence, 250 g ai/ha): 10
- Plant response rating, Blackgrass (blackgrass [1]; 125 g ai/ha, 0 to 100 scale, 0 no effect, 100 complete control): 50
- Plant response rating, Blackgrass (blackgrass [1]; 500 g ai/ha, 0 to 100 scale (0 no effect, 100 complete control)): 80
- Plant response rating, Galium (galium; [6]): 0
- Plant response rating, Galium (galium; [7]): 0
- Plant response rating, Galium (galium; [8]): 30
- Plant response rating, Galium (galium; [9]): 30
- Galium plant response rating (galium; Preemergence, 31 g ai/ha): 60
- Plant response rating, Galium (galium; [10]): 100
- Plant response rating, Galium (galium; [11]): 50
- Plant response rating (scale of 0 to 100), Galium (galium; Preemergence, 250 g ai/ha): 100
- Plant response rating, Blackgrass (blackgrass [2]; [6]): 0
- Plant response rating, Blackgrass (blackgrass [2]; [7]): 0
- Plant response rating, Blackgrass (blackgrass [2]; [8]): 0
- Plant response rating, Blackgrass (blackgrass [2]; [9]): 0
- Blackgrass plant response rating (blackgrass [2]; Preemergence, 31 g ai/ha): 0
- Plant response rating, Blackgrass (blackgrass [2]; [10]): 60
- Plant response rating, Blackgrass (blackgrass [2]; [11]): 90
- Plant response rating (scale of 0 to 100), Blackgrass (blackgrass [2]; Preemergence, 250 g ai/ha): 95

SMILES: O=C1NCC(c2ccc(C(F)(F)F)cc2)C1C(=O)Nc1ccccc1F (stereo not shown) [Compound 79, N-(2-fluorophenyl)-2-oxo-4-[4-(trifluoromethyl)phenyl]-3-pyrrolidinecarboxamide]
- Plant response rating, Kochia (kochia; [3]): 5
- Plant response rating, Kochia (kochia; [4]): 55
- Plant response rating, Kochia (kochia; [5]): 55
- Plant response rating, Barnyardgrass (barnyardgrass; [6]): 0
- Plant response rating, Barnyardgrass (barnyardgrass; [7]): 0
- Plant response rating, Barnyardgrass (barnyardgrass; [8]): 35
- Plant response rating, Barnyardgrass (barnyardgrass; [9]): 60
- Barnyardgrass plant response rating (barnyardgrass; Preemergence, 31 g ai/ha): 40
- Plant response rating, Barnyardgrass (barnyardgrass; [10]): 95
- Plant response rating, Barnyardgrass (barnyardgrass; [11]): 95
- Plant response rating (scale of 0 to 100; 0 is no effect, 100 is complete control), Barnyardgrass (barnyardgrass; Preemergence, 250 g ai/ha): 98
- Plant response rating, Foxtail, Giant (foxtail, giant; [6]): 15
- Plant response rating, Foxtail, Giant (foxtail, giant; [7]): 15
- Plant response rating, Foxtail, Giant (foxtail, giant; [8]): 15
- Plant response rating, Foxtail, Giant (foxtail, giant; [9]): 15
- Foxtail, Giant plant response rating (foxtail, giant; Preemergence, 31 g ai/ha): 80
- Plant response rating, Foxtail, Giant (foxtail, giant; [10]): 90
- Plant response rating, Foxtail, Giant (foxtail, giant; [11]): 95
- Plant response rating (scale of 0 to 100), Foxtail, Giant (foxtail, giant; Preemergence, 250 g ai/ha): 98
- Plant response rating, Velvetleaf (velvetleaf; [6]): 0
- Plant response rating, Velvetleaf (velvetleaf; [7]): 0
- Plant response rating, Velvetleaf (velvetleaf; [8]): 0
- Plant response rating, Velvetleaf (velvetleaf; [9]): 0
- Velvetleaf plant response rating (velvetleaf; Preemergence, 31 g ai/ha): 0
- Plant response rating, Velvetleaf (velvetleaf; [10]): 0
- Plant response rating, Velvetleaf (velvetleaf; [11]): 20
- Plant response rating (scale of 0 to 100), Velvetleaf (velvetleaf; Preemergence, 250 g ai/ha): 35
- Plant response rating, Galium (galium; [6]): 30
- Plant response rating, Galium (galium; [7]): 60
- Plant response rating, Galium (galium; [8]): 60
- Galium plant response rating (galium; Preemergence, 31 g ai/ha): 0
- Plant response rating, Galium (galium; [10]): 5
- Plant response rating, Galium (galium; [11]): 85
- Plant response rating (scale of 0 to 100), Galium (galium; Preemergence, 250 g ai/ha): 90
- Plant response rating, Blackgrass (blackgrass [2]; [6]): 0
- Plant response rating, Blackgrass (blackgrass [2]; [7]): 0
- Plant response rating, Blackgrass (blackgrass [2]; [8]): 0
- Plant response rating, Blackgrass (blackgrass [2]; [9]): 5
- Blackgrass plant response rating (blackgrass [2]; Preemergence, 31 g ai/ha): 0
- Plant response rating, Blackgrass (blackgrass [2]; [10]): 65
- Plant response rating, Blackgrass (blackgrass [2]; [11]): 85
- Plant response rating (scale of 0 to 100), Blackgrass (blackgrass [2]; Preemergence, 250 g ai/ha): 85
